Results: US20230123135A1 (priority 2020, published 2023)
pIC50: −log10 of the molar value. Entries after “also recorded” stand apart in the source; their conditions may differ. Like-named read-outs stand apart in the source and are kept apart here.

How the values were obtained:
[1] = tested on: IL-6; assay: animal or person; format: in vivo, Mus musculus (BALB/c); conditions: for inhibition of IL-6 production (%) at 3 mg/kg: Mus musculus, read-out: inhibitory rate of IL-6 production (negative control as 100%)
[2] = tested on: IL-1β; assay: animal or person; format: in vivo, Mus musculus (BALB/c); conditions: for Inhibition rate of IL-1β production (%) at 3 mg/kg: Mus musculus, read-out: inhibitory rate of IL-1β production (negative control as 100%); for IL-1 beta Mean AUC (baseline-adjusted): mouse, in vivo
[3] = tested on: TNF-α; assay: animal or person; format: in vivo, Mus musculus (BALB/c); design: TNF-α production in BALF: unit not given here; conditions: for inhibition of TNF-α production at 3 mg/kg: Mus musculus, read-out: inhibitory rate of TNF-α production (negative control as 100%)
[4] = tested on: primary rat peritoneal macrophages
[5] = in vitro; conditions: African green monkey
[6] = tested on: SARS-CoV-2; assay: microbe, parasite or virus in culture; format: cell-based; conditions: for pIC50: read-out: IC50, inhibition of SARS-CoV-2 infection
[7] = tested on: primary rat peritoneal macrophages; remark: listed apart in the source
[8] = tested on: TNF-α; format: cell-based, mouse
[9] = tested on: SARS-CoV-2 infection; design: species or system person; conditions: in vivo
[10] = tested on: COX-2 mRNA; format: cell-based, mouse
[11] = tested on: IL-6; format: cell-based, rat
[12] = tested on: PGE2 production; format: cell-based, mouse
[13] = tested on: Vero cells
[14] = tested on: NF-κB; assay: Western blot, NF-κB (p50, p65) protein in RAW264.7 macrophages; format: cell-based, mouse; conditions: 2.5-10 μM 30 min pretreatment, LPS 1 μg/mL 15 min
[15] = tested on: iNOS; format: cell-based, mouse
[16] = tested on: IL-1β mRNA; format: cell-based, mouse
[17] = tested on: NO production; format: cell-based, mouse; conditions: read-out: IC50 for inhibition of NO production
[18] = tested on: TNF-α; format: cell-based, rat; conditions: 24 h, LPS 100 ng/mL; read-out: IC50, secretion of TNF-α
[19] = in vivo
[20] = tested on: IL-1β; format: cell-based, mouse
[21] = tested on: IL-1β; format: cell-based, rat
[22] = tested on: IFN-β mRNA; format: cell-based, mouse
[23] = tested on: COX-2; format: cell-based, mouse
[24] = tested on: human telomerase; conditions: cited from earlier work
[25] = tested on: NF-κB transcriptional activity; format: cell-based, mouse
[26] = tested on: TNF-α mRNA; format: cell-based, mouse
[27] = tested on: iNOS mRNA; format: cell-based, mouse
[28] = tested on: IκB; assay: Western blot, IκB degradation in RAW264.7 macrophages; format: cell-based, mouse; conditions: 2.5-10 μM 30 min pretreatment, LPS 1 μg/mL 15 min
[29] = Severe acute respiratory syndrome coronavirus 2, Vero, 24 h
[30] = 3 μM, in the absence of significant cell death

Question: Which inhibition of IL-6 production (%) at 3 mg/kg ([1]; 1 h) does the source give for `C[C@@H]1C[C@H]2[C@@H]3CCC4=CC(=O)C=C[C@]4(C)[C@@]3(F)[C@@H](O)C[C@]2(C)[C@@]1(O)C(=O)CO` [Dexamethasone] here?
Answer: 59%

Question: And the inhibition of IL-6 production (%) at 3 mg/kg ([1]; 2 h)?
Answer: 43%

Question: And the inhibition of IL-6 production (%) at 3 mg/kg ([1]; 4 h)?
Answer: 59%

Question: What about the inhibition of IL-6 production (%) at 3 mg/kg ([1]; 6 h) of the same molecule?
Answer: 20%

Question: What about the inhibition of IL-6 production (%) at 3 mg/kg ([1]; 12 h) of the same molecule?
Answer: 16%

Question: And the inhibition of IL-6 production (%) at 3 mg/kg ([1]; 24 h)?
Answer: 51%

Question: And the “IL-6 Mean AUC (baseline-adjusted)” value ([1]; mouse, in vivo)?
Answer: 54684.9 pg·h/mL

Question: What about the Inhibition rate of IL-1β production (%) at 3 mg/kg ([2]; 4 h) of the same molecule?
Answer: 69%

Question: What about the Inhibition rate of IL-1β production (%) at 3 mg/kg ([2]; 6 h) of the same molecule?
Answer: 67%

Question: What about the Inhibition rate of IL-1β production (%) at 3 mg/kg ([2]; 12 h) of the same molecule?
Answer: 77%

Question: And the “IL-1 beta Mean AUC (baseline-adjusted)” value [2]?
Answer: 2637.5 pg·h/mL

Question: And the inhibition of TNF-α production at 3 mg/kg ([3]; 1 h)?
Answer: 25%

Question: And the inhibition of TNF-α production at 3 mg/kg ([3]; 2 h)?
Answer: 28%

Question: And the inhibition of TNF-α production at 3 mg/kg ([3]; 4 h)?
Answer: 33%

Question: And the inhibition of TNF-α production at 3 mg/kg ([3]; 6 h)?
Answer: 28%

Question: And the inhibition of TNF-α production at 3 mg/kg ([3]; 12 h)?
Answer: 9%

Question: And the “TNF-alpha Mean AUC (baseline-adjusted)” value ([3]; mouse, in vivo)?
Answer: 2815.4 pg·h/mL

Question: For `C[C@@H]1CC[C@@]2(OC1)O[C@H]1[C@@H](O)[C@H]3[C@@H]4CC[C@H]5C[C@@H](O[C@@H]6O[C@H](CO)[C@H](O[C@@H]7O[C@H](CO)[C@@H](O)[C@H](O[C@@H]8OC[C@@H](O)[C@H](O)[C@H]8O)[C@H]7O[C@@H]7O[C@H](CO)[C@H](O)[C@H](O[C@@H]8O[C@H](CO)[C@@H](O)[C@H](O)[C@H]8O)[C@H]7O)[C@H](O)[C@H]6O)[C@H](O)C[C@]5(C)[C@H]4CC[C@]3(C)[C@H]1[C@@H]2C` [Digitonin, reference compound], which “cytotoxicity (CytoTox-GLO) compared with vehicle” value [4] is on record?
Answer: high toxicity

Question: With `Cc1cccc(C)c1OCC(=O)N[C@@H](Cc1ccccc1)[C@@H](O)C[C@H](Cc1ccccc1)NC(=O)[C@H](C(C)C)N1CCCNC1=O` [lopinavir] as the molecule, how does the CC50 [5] read?
Answer: > 50 µM

Question: And the “Selectivity index (SI), CC50/IC50” value [6]?
Answer: 3.81

Question: And the pIC50 [6, 29]?
Answer: 4.88

Question: For `CCC(CC)COC(=O)[C@H](C)N[P@](=O)(OC[C@H]1O[C@@](C#N)(c2ccc3c(N)ncnn23)[C@H](O)[C@@H]1O)Oc1ccccc1` [remdesivir], which CC50 [5] is on record?
Answer: > 50 µM

Question: And the pIC50 [6, 29]?
Answer: 5.28

Question: For Triton-X [reference compound], which “cell viability (MTT) compared with vehicle” value [7] is on record?
Answer: low cell viability

Question: Which results are given for sodium meta-arsenite [SMA]?
Answer: cytotoxicity (CytoTox-GLO) compared with vehicle ([4]; 24 h, LPS 100 ng/mL): concentration-dependent increase in cytotoxicity; TNF-α protein expression [8]: significantly inhibited; symptoms of SARS-CoV-2 infection after taking SMA [9]: effective in alleviating or treating the symptoms of SARS-CoV-2 infection; also recorded: Chest tightness and pain relieved; also recorded: Temporary relief of symptoms; inhibitory rate of IL-6 production (negative control as 100%) ([1]; mouse, in vivo): 60%; IL-6 Mean AUC (baseline-adjusted) ([1]; mouse, in vivo, 1.03 mg/kg): 165404.0 pg·h/mL; IL-6 Mean AUC (baseline-adjusted) ([1]; mouse, in vivo, 1.54 mg/kg): 128034.8 pg·h/mL; IL-6 Mean AUC (baseline-adjusted) ([1]; mouse, in vivo, 2.05 mg/kg): 78963.1 pg·h/mL; IL-1 beta Mean AUC (baseline-adjusted) ([2]; 1.03 mg/kg): 4272.9 pg·h/mL; IL-1 beta Mean AUC (baseline-adjusted) ([2]; 1.54 mg/kg): 3738.3 pg·h/mL; IL-1 beta Mean AUC (baseline-adjusted) ([2]; 2.05 mg/kg): 3045.8 pg·h/mL; COX-2 mRNA expression [10]: not influenced; secretion of IL-6 [11, 30]: complete inhibition; pIC50 ([11]; 24 h, LPS 100 ng/mL, read-out: IC50, secretion of IL-6): 6.30; TNF-α production in BALF ([3]; mouse, in vivo): 794; TNF-alpha Mean AUC (baseline-adjusted) ([3]; mouse, in vivo, 1.03 mg/kg): 7984.4 pg·h/mL; TNF-alpha Mean AUC (baseline-adjusted) ([3]; mouse, in vivo, 1.54 mg/kg): 6064.8 pg·h/mL; TNF-alpha Mean AUC (baseline-adjusted) ([3]; mouse, in vivo, 2.05 mg/kg): 4215.8 pg·h/mL; inhibition of PGE2 production [12]: 20%; CC50 [13]: 21.1 µM; NF-κB protein level [14]: markedly decreased; iNOS protein expression [15]: significantly inhibited; expression of IL-1β mRNA [16]: no effect; pIC50 [17]: ~5.54; pIC50 [18]: 5.64; time until fully metabolised and excreted from the body after taking it [19]: 72 h; IL-1β protein expression [20]: significantly inhibited; secretion of IL-1β [21, 30]: complete inhibition; pIC50 ([21]; 24 h, LPS 100 ng/mL, read-out: IC50, secretion of IL-1β): 6.10; expression of IFN-β mRNA [22]: no effect; pIC50 [6]: 5.37; cell viability (MTT) compared with vehicle ([7]; 24 h, LPS 100 ng/mL): concentration-dependent decrease in viability; pIC50 ([7]; read-out: IC50 for cell viability, 24 h, LPS 100 ng/mL, MTT): 5.24; COX-2 protein expression [23]: slightly inhibited; inhibition of human telomerase [24]: potent inhibitor; LPS-induced SEAP expression (NF-κB transcriptional activity) [25]: inhibited LPS-induced SEAP expression significantly; mRNA level of TNF-α [26]: significantly decreased; iNOS mRNA expression [27]: significantly inhibited; IκB degradation [28]: markedly inhibited
